Laboratory results reported in patent US20230226092A1, “CANCER […] ON G[…]” (NuCana plc, priority 2015, published 2023).

Test system: advance progressive cancers that are refractory to, or have relapsed on, all conventional therapies
Assay: ProGem1 dose escalation clinical study: clinical response (RECIST 1.1, tumour markers)
Type: in vivo, human
Set-up: CA125 level / CA19.9 / CEA / CA125 / Tumour volume / CA 15.3 tumour marker / inhibin B: unit not given here
Source text: The following data were generated in clinical studies of NUC-1031 in human patients with advance progressive cancers that are refractory to, or have relapsed on, all conventional therapies that have been used to date. The results clearly illustrate the ability of NUC-1031 to successfully treat refractory cancers.
Although the primary objectives of the dose escalation part of the study were to determine the Recommended Phase II Dose (RP2D) and safety profile, secondary objectives included determining the PK profile, however effective treatment of patients with a range of refractory cancers has also been observed as part of this study.
A total of 68 patients have been entered into this dose escalation study, of which 49 were evaluable for clinical response in that they have received at least 2 Cycles of NUC-1031 and were therefore eligible for a RECIST 1.1 assessment.
NUC-1031 was administered as a 5 to 30 minute intravenous slow bolus injection. • Schedule A: NUC-1031 was administered on days 1, 8, 15 of a 4 weekly Cycle. • Schedule B: NUC-1031 was administered on days 1, 5, 8, 12, 15, 19, of a 4 weekly Cycle.
Evaluable patients were patients that received ≥ 2 Cycles of NUC-1031 and were therefore eligible for a RECIST 1.1 assessment at the end of Cycle 2. Where the disease response duration, measured in months, is followed by a “+” this indicates ongoing disease control as of the latest cut-off date.

[1] = Patient 004, breast cancer, 500 mg/m^2 weekly
[2] = Patient 005, ovarian cancer, 500 mg/m^2 weekly
[3] = Patient 006, cholangiocarcinoma, 375 mg/m^2 twice weekly, then 500 mg/m^2 weekly
[4] = Patient 008, cancer of unknown primary, 375 mg/m^2 twice weekly
[5] = Patient 010, endometrial cancer
[6] = Patient 015, cancer of unknown primary, ongoing
[7] = Patient 021, fallopian tube cancer
[8] = Patient 025, mesothelioma, 725 mg/m^2 weekly
[9] = Patient 026, colorectal cancer, 725 mg/m^2 weekly
[10] = Patient 029, breast cancer, 725 mg/m^2 weekly
[11] = Patient 030, ovarian cancer, 725 mg/m^2 weekly
[12] = Patient 032, oesophageal cancer, 750 mg/m^2 weekly
[13] = Patient 033, cholangiocarcinoma, 750 mg/m^2 weekly

Substance: gemcitabine-[phenyl-benzoxy-L-alaninyl)]-phosphate [NUC-1031]
- Disease response duration [1]: 12 months
- Response to RECIST [1]: Stable Disease
- Remained stable with no further treatment (Patient 004, breast cancer, after Cycle 7): 5 months
- Disease response duration [2]: 15 months
- Response to RECIST [2]: Stable Disease
- Time to relapse after stopping treatment (Patient 005, ovarian cancer, after 12 months of treatment): 3 months
- CA125 level (Patient 005, ovarian cancer, end of Cycle 6, from 208 at start of study): 140
- CT scan finding (Patient 006, cholangiocarcinoma): reduction in metastatic lung lesion and lymph node from baseline
- Disease response duration [3]: 3 months
- Response to RECIST [3]: Stable Disease
- CA19.9 (Patient 006, cholangiocarcinoma, after two doses, from 125,002): 59,285
- Disease response duration (Patient 007, colorectal cancer): 3 months
- Response to RECIST (Patient 007, colorectal cancer, 375 mg/m^2 twice weekly, then 500 mg/m^2 weekly): Stable Disease
- CEA (Patient 007, colorectal cancer, from 361): 286
- CA19.9 (Patient 007, colorectal cancer, from 3,151): 2,957
- Disease response duration [4]: 3 months
- Response to RECIST [4]: Stable Disease
- Symptomatic benefit (Patient 008, cancer of unknown primary, Cycle 1): symptomatic relief on treatment and a general improvement in mood and wellbeing
- Disease response duration [5]: 9 months
- Stable Disease maintained after stopping NUC-1031 [5]: 3 months
- Response to RECIST (Patient 010, endometrial cancer, 750 mg/m^2 weekly, then 500 mg/m^2): Stable Disease
- CA125 (Patient 010, endometrial cancer, from 727): 488
- Disease response duration (Patient 011, uterine carcinosarcoma): 4 months
- Reduction in tumour volume (Patient 011, uterine carcinosarcoma, 375 mg/m^2 twice weekly): 26%
- Response to RECIST (Patient 011, uterine carcinosarcoma, 375 mg/m^2 twice weekly, then 625 mg/m^2 weekly): Stable Disease
- Disease response duration (Patient 012, cholangiocarcinoma): 8 months
- Response to RECIST (Patient 012, cholangiocarcinoma, 375 mg/m^2 twice weekly, then 625 mg/m^2 weekly): Stable Disease
- Disease response duration (Patient 013, cervical cancer): 9 months
- PFS (Patient 013, cervical cancer): 11 months
- Response to RECIST (Patient 013, cervical cancer, 750, then 625, then 500 mg/m^2 weekly): Partial Response
- Symptomatic benefit (Patient 013, cervical cancer, lower pelvic pain): relief of this pain on treatment, with significant reduction of opioid usage
- Response to RECIST (Patient 014, mesothelioma, 750, then 625 mg/m^2 weekly): Progressive Disease
- Response to RECIST (Patient 015, cancer of unknown primary, 750, then 625, then 500 mg/m^2 weekly): Partial Response
- Reduction in tumour size (Patient 015, cancer of unknown primary, CT scan 9th January 2015): ~58%
- Symptomatic benefit (Patient 015, cancer of unknown primary, following Cycle 1): the oedema and ascites had gone
- Disease response duration [6]: ≥ 20 months
- PFS [6]: ≥ 24 months
- Disease response duration (Patient 017, lung cancer): 3 months
- PFS (Patient 017, lung cancer): 10 months
- Symptomatic benefit (Patient 017, lung cancer): improvement in hoarse voice and dysphagia
- Response to RECIST (Patient 017, lung cancer (adenocarcinoma), 750, then 625 mg/m^2 weekly): Partial Response
- Response to RECIST (Patient 018, lung cancer (squamous cell), 625 mg/m^2 weekly): Stable Disease
- Disease response duration (Patient 018, lung cancer, 625 mg/m^2 weekly): 4 months
- Response duration according to GCIG criteria [7]: 9 months
- Response duration according to RECIST [7]: 3 months
- Symptomatic benefit [7]: significant reduction in abdominal ascites
- Best overall response (Patient 021, fallopian tube cancer, 625 mg/m^2 weekly): Partial Response
- CA125 reduction from baseline (Patient 021, fallopian tube cancer, end of Cycle 6): 91%
- CA125 (Patient 021, fallopian tube cancer, end of Cycle 6, baseline 372): 35
- Response to RECIST (Patient 024, cancer of unknown primary, 675 mg/m^2 weekly): Progressive Disease
- Disease response duration [8]: 4 months
- Response to RECIST [8]: Stable Disease
- Symptomatic benefit (Patient 026, colorectal cancer): Significant improvement in pain, with dramatic reduction in use of opioid analgesia
- Disease response duration [9]: 4 months
- Response to RECIST [9]: Stable Disease
- Disease response duration (Patient 027, ovarian cancer): 8 months
- Reduction in tumour volume (Patient 027, ovarian cancer): 23%
- Response to RECIST (Patient 027, ovarian cancer, 725, then 675, then 625 mg/m^2 weekly): Stable Disease
- CA125 (Patient 027, ovarian cancer, end of Cycle 6, from 188 at baseline): 99
- Disease response duration [10]: 4 months
- Response to RECIST [10]: Stable Disease
- Disease response duration [11]: 3 months
- Response to RECIST [11]: Stable Disease
- Response (end of Cycle 2 CT scan) (Patient 031, cholangiocarcinoma, 750 mg/m^2 weekly): Progressive Disease
- Disease response duration [12]: 2 months
- Response to RECIST [12]: Stable Disease
- Disease response duration [13]: 3 months
- Response to RECIST [13]: Stable Disease
- Disease response duration (Patient 036, renal carcinoma): 5 months
- Response to RECIST (Patient 036, renal carcinoma, 825, then 750 mg/m^2 weekly): Stable Disease
- Reduction in tumour volume (Patient 036, renal carcinoma, end of Cycle 4 CT scan): 7%
- Disease response duration (Patient 037, pancreatic cancer): 1 month
- PFS (Patient 037, pancreatic cancer): 4 months
- Symptomatic benefit (Patient 037, pancreatic cancer): Pain in abdomen and back had significantly improved
- Response to RECIST (Patient 037, pancreatic cancer, 1,000, then 900 mg/m^2 weekly): Partial Response
